The structures appear in SMILES notation.

T1 sequence (Q9Y5N1 with tags, fused parts or gaps): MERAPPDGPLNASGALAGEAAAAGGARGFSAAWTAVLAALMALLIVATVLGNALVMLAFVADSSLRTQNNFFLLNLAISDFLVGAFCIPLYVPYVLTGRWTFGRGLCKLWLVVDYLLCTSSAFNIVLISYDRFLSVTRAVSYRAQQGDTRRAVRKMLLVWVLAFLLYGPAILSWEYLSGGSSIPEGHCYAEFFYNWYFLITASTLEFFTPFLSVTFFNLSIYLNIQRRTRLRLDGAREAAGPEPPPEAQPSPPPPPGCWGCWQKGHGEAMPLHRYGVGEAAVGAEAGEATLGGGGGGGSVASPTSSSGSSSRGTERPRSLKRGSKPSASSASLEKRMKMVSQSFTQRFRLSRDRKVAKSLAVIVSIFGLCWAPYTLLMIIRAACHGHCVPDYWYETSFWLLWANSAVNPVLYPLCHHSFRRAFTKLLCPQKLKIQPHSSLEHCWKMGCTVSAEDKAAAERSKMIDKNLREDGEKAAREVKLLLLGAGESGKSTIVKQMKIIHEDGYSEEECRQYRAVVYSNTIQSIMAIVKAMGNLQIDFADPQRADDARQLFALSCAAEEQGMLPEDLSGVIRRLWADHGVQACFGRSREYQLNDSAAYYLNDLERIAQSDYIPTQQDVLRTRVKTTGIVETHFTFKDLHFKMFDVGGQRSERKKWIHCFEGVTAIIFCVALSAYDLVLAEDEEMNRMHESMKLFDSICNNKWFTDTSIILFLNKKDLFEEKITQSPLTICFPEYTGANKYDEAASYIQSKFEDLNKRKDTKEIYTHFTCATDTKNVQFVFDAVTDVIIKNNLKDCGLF

One test addresses T1, chimeric human H3 receptor (Homo sapiens, UniProt Q9Y5N1).
T1 construct: made in house; host or cells: Sf9 insect cells (baculovirus); P2 membrane preparation
The experiment in a line: Chimeric human H3 receptor GTP binding assay (agonist-stimulated GTP-gamma35S binding, Example 7). The test is classed as biochemical. The following applies: Table I; P2 membranes of Sf9 cells, 1 μM histamine as agonist, Ki from IC50 by Cheng-Prusoff. The method in brief: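 Sf9 membranes co-expressing chimeric human H3 receptor and heterotrimeric G-protein, 35 μg/tube, in pH 7.4 Tris buffer with 10 μM GDP. Test compounds (10^−10–10^−6 M) competed against 1 μM histamine, […] GTP-gamma35S, 60 min at room temperature. Filter-bound radioactivity counted; IC50 converted to Ki by Cheng-Prusoff. Agonism/inverse agonism tested without histamine (EC50).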
In the case of `O=C(CN1CCc2cc(-c3cncnc3)ccc2C1)N1CCN(C2CCC2)CC1` [Compound 70, 2-[2-(4-cyclobutylpiperazin-1-yl)-2-oxoethyl]-6-pyrimidin-5-yl-1,2,3,4-tetrahydrasoquinoline], the Ki is under 1 µM.
Same read-out and setting: to `CC(C)N1CCN(C(=O)CN2CCc3ccccc3C2Cc2ccccc2)CC1` (stereo not shown) [Compound 55, 1-benzyl-2-[2-(4-isopropylpiperazin-1-yl)-2-oxoethyl]-1,2,3,4-tetrahydroisoquinoline] belongs under 1 µM; to `COc1ccc(-c2ncc3c(n2)CCN(CC(=O)N2CCN(C4CCC4)CC2)C3)cc1` [Compound 76, 6-[2-(4-cyclobutylpiperazin-1-yl)-2-oxoethyl]-2-(4-methoxyphenyl)-5,6,7,8-tetrahydropyrido[4,3-d]pyrimidine], under 1 µM.

The same test, now with this note: Table II "Ki", symbol *; assay of Example 7.
In the case of `O=C1CCCN1CCCNc1ccc2c(n1)CCN(CC(=O)N1CCN(C3CCC3)CC1)C2` [Compound 653, 1-[3-({6-[2-(4-cyclobutylpiperazin-1-yl)-2-oxoethyl]-5,6,7,8-tetrahydro-1,6-naphthyridin-2-yl}amino)propyl] pyrrolidin-2-one], the Ki was under 1 µM.
`COc1ccc(-c2ccc3c(c2)CCN(CC(=O)N2CCN(C4CCC4)CC2)C3)cc1OC` [Compound 524, 2-[2-(4-cyclobutylpiperazin-1-yl)-2-oxoethyl]-6-(3,4-dimethoxyphenyl)-1,2,3,4-tetrahydroisoquinoline]: the Ki is under 1 µM.
The same measure, in the same setting: for `COc1ccc(-c2ccc3c(c2)CCN(CC(=O)N2CCN(C4CCCC4)CC2)C3)cc1OC` [Compound 525, 2-[2-(4-cyclopentylpiperazin-1-yl)-2-oxoethyl]-6-(3.4-dimethoxyphenyl)-1,2,3,4-tetrahydroisoquinoline] the value was under 1 µM; for `COc1ccc(-c2ccc3c(c2)CCN(CC(=O)N2CCN(C4CCCC4)CC2)C3)cc1C` [Compound 541, 2-[2-(4-cyclopentylpiperazin-1-yl)-2-oxoethyl]-6-(4-methoxy-3-methylphenyl)-1,2,3,4-tetrahydroisoquinoline], under 1 µM.
Turning to `CC(C)CNc1ccc2c(n1)CCN(CC(=O)N1CCN(C3CCC3)CC1)C2` [Compound 651, 6-[2-(4-cyclobutylpiperazin-1-yl)-2-oxoethyl]-N-isobutyl-5,6,7,8-tetrahydro-1,6-naphthyridin-2-amine], the Ki is under 1 µM.
As to `COCCC1CCN(c2ccc3c(n2)CCN(CC(=O)N2CCN(C4CCC4)CC2)C3)CC1` [Compound 672, 6-[2-(4-cyclobutylpiperazin-1-yl)-2-oxoethyl]-2-[4-(2-methoxyethyl)piperidin-1-yl]-5,6,7,8-tetrahydro-1,6-naphthyridine], the Ki is under 1 µM.

Still in this test, the particulars now being: Table II; "*" = Ki in assay of Example 7 less than 1 micromolar.
For the molecule `CCC1CCC[C@H]2CN(C(=O)CN3CCc4cc(Br)ccc4C3)CCN12` (stereo in doubt) [Compound 162, 2-[(6-bromo-3,4-dihydroisoquinolin-2(1H)-yl)acetyl]-6-ethyloctahydro-2H-pyrido[1,2-a]pyrazine], the Ki was under 1 µM.
In the case of `CC(=O)c1ccc2c(c1)CCN(CC(=O)N1CCN(C3CCC3)CC1)CC2` [Compound 101, 1-{3-[2-(4-cyclobutylpiperazin-1-yl)-2-oxoethyl]-2,3,4,5-tetrahydro-1H-3-benzazepin-7-yl}ethanone], the Ki is under 1 µM.
Same read-out and setting: to `O=C(NC1CCC1)c1ccc2c(n1)CCN(CC(=O)N1CCN(C3CCC3)CC1)C2` [Compound 125, N-cyclobutyl-6-[2-(4-cyclobutylpiperazin-1-yl)-2-oxoethyl]-5,6,7,8-tetrahydro-1,6-naphthyridine-2-carboxamide] belongs under 1 µM.
`CCC1CCC[C@H]2CN(C(=O)CN3CCc4cc(-n5ccc(C(F)(F)F)n5)ccc4C3)CCN12` (stereo in doubt) [Compound 161, 6-ethyl-2-({6-[3-(trifluoromethyl)-1H-pyrazol-1-yl]-3,4-dihydroisoquinolin-2(1H)-yl}acetyl)octahydro-2H-pyrido[1,2-a]pyrazine]: the Ki is under 1 µM.
Same read-out and setting: to `O=C(CN1CCc2nc(OC3CCCC3)ccc2C1)N1CCN(C2CCC2)CC1` [Compound 185, 6-[2-(4-cyclobutylpiperazin-1-yl)-2-oxoethyl]-2-(cyclopentyloxy)-5,6,7,8-tetrahydro-1,6-naphthyridine] belongs under 1 µM.
The same measure, in the same setting: to `O=C(CN1CCc2nc(N3CCC(F)(F)CC3)ccc2C1)N1CCN(C2CCC2)CC1` [Compound 183, 6-[2-(4-cyclobutylpiperazin-1-yl)-2-oxoethyl]-2-(4,4-difluoropiperidin-1-yl)-5,6,7,8-tetrahydro-1,6-naphthyridine] belongs under 1 µM; to `CS(=O)(=O)c1cccc(-c2ccc3c(c2)CCN(CC(=O)N2CCN(C4CCC4)CC2)C3)c1` [Compound 84, 2-[2-(4-cyclobutylpiperazin-1-yl)-2-oxoethyl]-6-[3-(methylsulfonyl)phenyl]-1,2,3,4-tetrahydroisoquinoline], under 1 µM; to `CC1CCC[C@H]2CN(C(=O)CN3CCc4nc(-c5cncnc5)ccc4C3)CCN12` (stereo in doubt) [Compound 177, 6-[2-(6-methyloctahydro-2H-pyrido[1,2-a]pyrazin-2-yl)-2-oxoethyl]-2-pyrimidin-5-yl-5,6,7,8-tetrahydro-1,6-naphthyridine], under 1 µM.
Still for that read-out and setting: to `CCC1CCC[C@H]2CN(C(=O)CN3CCc4cc(-n5cccn5)ccc4C3)CCN12` (stereo in doubt) [Compound 167, 6-ethyl-2-{[6-(1H-pyrazol-1-yl)-3,4-dihydroisoquinolin-2(1H)-yl]acetyl}octahydro-2H-pyrido[1,2-a]pyrazine] belongs under 1 µM; to `Cn1cccc(-c2ccc3c(c2)CCN(CC(=O)N2CCN(C4CCC4)CC2)C3)c1=O` [Compound 212, 3-{2-[2-(4-cyclobutylpiperazin-1-yl)-2-oxoethyl]-1,2,3,4-tetrahydroisoquinolin-6-yl}-1-methylpyridin-2(1H)-one], under 1 µM.
Consider `CC(=O)c1ccc2c(c1)CCN(CC(=O)N1CCN3C(C)CCCC3C1)C2` (stereo not shown) [Compound 142, 1-{2-[2-(6-methyloctahydro-2H-pyrido[1,2-a]pyrazin-2-yl)-2-oxoethyl]-1,2,3,4-tetrahydroisoquinolin-6-yl}ethanone], for which the Ki was under 1 µM.
Still for that read-out and setting: to `O=C(CN1CCc2cc(-c3cncs3)ccc2C1)N1CCN(C2CCC2)CC1` [Compound 132, 2-[2-(4-cyclobutylpiperazin-1-yl)-2-oxoethyl]-6-(1,3-thiazol-5-yl)-1,2,3,4-tetrahydroisoquinoline] belongs under 1 µM.
With `N#Cc1cnn(-c2ccc3c(c2)CCN(CC(=O)N2CCN(C4CCC4)CC2)C3)c1` [Compound 244, 1-{2-[2-(4-cyclobutylpiperazin-1-yl)-2-oxoethyl]-1,2,3,4-tetrahydroisoquinolin-6-yl}-1H-pyrazole-4-carbonitrile], the Ki was under 1 µM.

The test is the same for the next values; noted with them: Table II; assay of Example 7.
Take `O=C(CN1CCc2nn(-c3ccc4nncn4n3)cc2C1)N1CCN(C2CCC2)CC1` [Compound 688, 6-{5-[2-(4-cyclobutylpiperazin-1-yl)-2-oxoethyl]-4,5,6,7-tetrahydro-2H-pyrazolo[4,3-c]pyridin-2-yl}[1,2,4]triazolo[4,3-b]pyridazine]: the Ki is under 1 µM.

The same test, now with this note: assay of Example 7; "*" in Ki of Table II.
Turning to `CCOC(=O)c1ccc(-c2nc3c(s2)CN(CC(=O)N2CCN(C4CCC4)CC2)CC3)cc1` [Compound 375, ethyl 4-{5-[2-(4-cyclobutylpiperazin-1-yl)-2-oxoethyl]-4,5,6,7-tetrahydro[1,3]thiazolo [5,4-c]pyridin-2-yl}benzoate], the Ki is under 1 µM.
`CCC(C)N1CCN(C(=O)CN2CCc3cc(-c4ccc(S(C)(=O)=O)cc4)ccc3C2)CC1` (stereo not shown) [Compound 396, 2-[2-(4-sec-butylpiperazin-1-yl)-2-oxoethyl]-6-[4-(methylsulfonyl)phenyl]-1,2,3,4-tetrahydroisoquinoline]: the Ki is under 1 µM.
On the same count and under the same terms, to `O=C(CN1CCc2nc(-c3ccc(C(F)(F)F)cc3)sc2C1)N1CCN(C2CCC2)CC1` [Compound 369, 5-[2-(4-cyclobutylpiperazin-1-yl)-2-oxoethyl]-2-[4-(trifluoromethyl)phenyl]-4,5,6,7-tetrahydro[1,3]thiazolo [5,4-c]pyridine] belongs under 1 µM; to `CC(C)Oc1cccc(-c2nc3c(s2)CN(CC(=O)N2CCN(C4CCC4)CC2)CC3)c1` [Compound 325, 5-[2-(4-cyclobutylpiperazin-1-yl)-2-oxoethyl]-2-(3-isopropoxyphenyl)-4,5,6,7-tetrahydro[1,3]thiazolo [5,4-c]pyridine], under 1 µM.
The same measure, in the same setting: for `O=C(CN1CCc2cc(-c3cncnc3)ccc2C1)N1CCN(C2CCCC2)CC1` [Compound 392, 2-[2-(4-cyclopentylpiperazin-1-yl)-2-oxoethyl]-6-pyrimidin-5-yl-1,2,3,4-tetrahydroisoquinoline] the value was under 1 µM; for `O=C(CN1CCc2nc(-c3ccc4ccccc4c3)sc2C1)N1CCN(C2CCC2)CC1` [Compound 300, 5-[2-(4-cyclobutylpiperazin-1-yl)-2-oxoethyl]-2-(2-naphthyl)-4,5,6,7-tetrahydro[1,3]thiazolo [5,4-c]pyridine], under 1 µM.
The same measure, in the same setting: for `O=C(CN1CCc2nc(-c3c(F)cccc3F)sc2C1)N1CCN(C2CCC2)CC1` [Compound 353, 5-[2-(4-cyclobutylpiperazin-1-yl)-2-oxoethyl]-2-(2,6-difluorophenyl)-4,5,6,7-tetrahydro[1,3]thiazolo [5,4-c]pyridine] the value was under 1 µM.
On to `O=C(CN1CCc2nc(-c3ccc4c(c3)OCO4)sc2C1)N1CCN(C2CCC2)CC1` [Compound 328, 2-(1,3-benzodioxol-5-yl)-5-[2-(4-cyclobutylpiperazin-1-yl)-2-oxoethyl]-4,5,6,7-tetrahydro[1,3]thiazolo [5,4-c]pyridine], for which the Ki was under 1 µM.

The Ki is a dissociation constant, usually derived from enzyme kinetics or from competition with a known ligand.

The values above are taken from patent US20110082130A1 (LIGAND PHARMACEUTICALS, INC., priority 2006, published 2011).
